In brackets after ≈: the same amount, converted by molar mass.
Key:
HSV-1 (strain KOS) = assay: Anti-herpes activity, plaque-reduction assay in Vero cells, HSV-1 (strain KOS); assay type: cell-based; details: Human alphaherpesvirus 1, 168 h, 7 days at 37° C., read-out: ID50 HSV-1 (concentration of compound causing 50% inhibition of plaque formation)
Procedure: (§1) Anti-herpes activity was measured in a plaque-reduction assay (Lopez, C. et al., J. Antimicrob. Agents Chemother., 17, 803 (1980). Confluent monolayers of Vero cells in 6-well plates were infected with 100 plaque forming units of either HSV-1 (strain KOS) or HSV-2 (strain 186). The infected monolayers were incubated at 37° C. for 1 hour and then overlaid with maintenance medium containing 1% agarose and various concentrations of test compounds. The monolayers were incubated for a further 7 days at 37° C., after which the cells were fixed and stained, the plaques were counted, and the concentration of compound causing 50% inhibition of plaque formation was calculated.

HSV-2 (strain 186) = assay: Anti-herpes activity, plaque-reduction assay in Vero cells, HSV-2 (strain 186); assay type: cell-based; details: Human alphaherpesvirus 2, 168 h; HSV-2 strain 186, Vero cells, 7 days at 37° C.; read-out: ID50 HSV-2 (concentration of compound causing 50% inhibition of plaque formation)
Procedure: as §1

Compound: Nc1ncnc2c1ncn2CC1(CO)CC1CO (stereo not shown)
- IC50 (HSV-1 (strain KOS)): 47 µg/mL (≈ 189 µM)

Compound: Nc1nc(Cl)c2ncn(CC3(CO)CC3CO)c2n1 (stereo not shown)
- IC50 (HSV-1 (strain KOS)): 34 µg/mL (≈ 120 µM)

Compound: Nc1ccn(CC2(CO)CC2CO)c(=O)n1 (stereo not shown)
- IC50 (HSV-1 (strain KOS)): 120 µg/mL (≈ 533 µM)

Compound: Nc1nc2c(ncn2C[C@]2(CO)C[C@@H]2CO)c(=O)[nH]1 (relative stereo)
- IC50 (HSV-1 (strain KOS)): 10.4 µg/mL (≈ 39.2 µM)

Compound: Nc1nc2c(ncn2C[C@]2(CO)C[C@H]2CO)c(=O)[nH]1 (relative stereo)
- IC50 (HSV-1 (strain KOS)): 0.046 µg/mL (≈ 0.173 µM)
- IC50 (HSV-2 (strain 186)): 0.42 µg/mL (≈ 1.58 µM)

Compound: Nc1nc2c(ncn2COCCO)c(=O)[nH]1 [Acyclovir, reference compound]
- IC50 (HSV-1 (strain KOS)): 0.57 µg/mL (≈ 2.53 µM)
- IC50 (HSV-2 (strain 186)): 0.4 µg/mL (≈ 1.78 µM)

Compound: Nc1nc2c(ncn2C[C@]2(CO)C[C@H]2CO)c(=O)[nH]1 [Example 20, (-)-9-[1'S,2'R-bis(hydroxymethyl)cyclopropan-1'yl]methylguanine]
- IC50 (HSV-1 (strain KOS)): 0.023 µg/mL (≈ 0.0867 µM)
- IC50 (HSV-2 (strain 186)): 0.24 µg/mL (≈ 0.905 µM)
